Reference: ChEMBL document CHEMBL4118282 (Bioorg Med Chem Lett, 2018)

Experiments:
[1] = Cytotoxicity against human MT4 cells assessed as reduction in cell viability after 5 days by MTT assay; type: cell-based
[2] = Therapeutic index, ratio of CC50 for human MT4 cells to EC50 for HIV1 3B […] infected in human MT4 cells; type: toxicity, cell-based; settings: read-out: Ratio CC50/EC50

Row | Compound | CC50 at 120 h [1] | selectivity ratio [2]
1 | CC(C)c1nc(CN(C)C(=O)N[C@H](C(=O)N[C@@H](Cc2ccccc2)C[C@H](O)[C@H](Cc2ccccc2)NC(=O)OCc2cncs2)C(C)C)c[se]1 | 42 µM | 76
2 | CC(C)[C@H](NC(=O)N(C)Cc1c[se]c(-c2ccccc2)n1)C(=O)N[C@@H](Cc1ccccc1)C[C@H](O)[C@H](Cc1ccccc1)NC(=O)OCc1cncs1 | 21 µM | 124
